Reference: US20070025976A1, “Process for the purification of coenzyme Q10” (Cargill, Inc., priority 2005, published 2007)

Assay: Solubility of pure CoQ10 in ethanol
Type: physicochemical
Protocol: The chromatography product from Example 8 is dissolved in 200 proof ethanol to create a 9 wt-% solution at 55° C. This should create a slightly sub-saturated solution. Table VI below provides solubility data for pure CoQ10 in ethanol.

Solubility (30 °C): 0.38 g/100 g Solvent | Solubility (50 °C): 8.99 g/100 g Solvent | Solubility (60 °C): 11.0 g/100 g Solvent
Compound: COC1=C(OC)C(=O)C(C/C=C(\C)CC/C=C(\C)CC/C=C(\C)CC/C=C(\C)CC/C=C(\C)CC/C=C(\C)CC/C=C(\C)CC/C=C(\C)CC/C=C(\C)CCC=C(C)C)=C(C)C1=O [CoQ10, 2,3 dimethoxy-5 methyl-6 decaprenyl benzoquinone]
